Results from PMC6496074, “The Evolution of Azole Resistance in Candida albicans Sterol 14α-Demethylase (CYP51) through Incremental Amino Acid Substitutions” (Antimicrobial Agents and Chemotherapy, 2019).
Where “and” joins values, the source holds several entries; their conditions need not be identical. Equal entries are not always repeated.

How the values were obtained:
CaCYP51 Y132H+K143R = target: T1, CaCYP51 Y132H+K143R (Candida albicans, UniProt P10613, K143R/Y132H); assay: Azole ligand binding (type II difference spectra); conditions: for Kd: 4 μM protein, 22°C, ± standard deviation, triplicate, read-out: dissociation constant (Kd)
T1 construct: made in house; host or cells: E. coli DH5α (pCWori+)
T1 sequence (P10613 whole entry, looked up, stated change not applied): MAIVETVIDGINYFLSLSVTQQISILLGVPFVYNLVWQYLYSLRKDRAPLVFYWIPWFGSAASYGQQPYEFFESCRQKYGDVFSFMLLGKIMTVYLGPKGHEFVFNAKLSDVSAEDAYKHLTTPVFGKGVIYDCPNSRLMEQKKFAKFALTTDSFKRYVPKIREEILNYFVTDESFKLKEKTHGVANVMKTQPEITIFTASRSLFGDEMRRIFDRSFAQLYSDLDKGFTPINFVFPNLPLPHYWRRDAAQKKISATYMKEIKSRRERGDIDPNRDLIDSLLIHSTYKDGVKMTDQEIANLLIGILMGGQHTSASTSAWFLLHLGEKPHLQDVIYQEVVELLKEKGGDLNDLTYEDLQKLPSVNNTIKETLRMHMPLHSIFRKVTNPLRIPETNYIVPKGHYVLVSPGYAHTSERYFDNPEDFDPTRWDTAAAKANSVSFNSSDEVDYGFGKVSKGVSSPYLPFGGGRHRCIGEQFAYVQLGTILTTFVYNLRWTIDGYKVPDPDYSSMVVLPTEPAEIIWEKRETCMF
Protocol: (§1) Studies of azole antifungal binding to 4 μM CaCYP51 proteins were performed as previously described ([53]) using quartz split cuvettes with a 4.5-mm light path. […] Azole antifungals were progressively titrated against the CaCYP51 proteins in 0.1 M Tris-HCl (pH 8.1) and 25% glycerol at 22°C, with equivalent volumes of dimethyl sulfoxide also being added to the CYP51-containing compartment of the reference cuvette. The absorbance difference spectra between 500 and 350 nm were determined after each incremental addition of azole, with binding saturation curves constructed from the change in the peak and trough absorbance (ΔApeak-trough) against the azole concentration. The dissociation constant (Kd) of the enzyme-azole complex for each azole was determined by nonlinear regression (Levenberg-Marquardt algorithm) using a rearrangement of the Morrison equation for tight ligand binding ([54], [55]). Tight binding is normally observed when the Kd for a ligand is similar to or lower than the concentration of the enzyme present ([56]). Where ligand binding was weak, the Michaelis-Menten equation was used to fit the data. Each binding determination was performed in triplicate. The chemical structures of the azole antifungals used in this study are shown in Fig. S5 in the supplemental material.

CaCYP51 Y132F+F145L [1] = assay: CYP51 reconstitution assay; format: biochemical, Candida albicans; conditions: Y132F+F145L
Protocol: (§2) Azole antifungal agents were added in 2.5 μl dimethyl sulfoxide, followed by 10 min of incubation at 37°C prior to assay initiation with 4 mM β-NADPH-Na4. The samples were then shaken for 15 min at 37°C. Sterol metabolites were recovered by extraction with ethyl acetate, followed by derivatization with 0.1 ml N,O-bis(trimethylsilyl)trifluoroacetamide (BSTFA)–trimethylchlorosilane (TMCS) (99:1) and 0.3 ml anhydrous pyridine (2 h at 80°C), prior to analysis by gas chromatography-mass spectrometry (GC-MS) ([52]). IC50 determinations were performed in duplicate.

CaCYP51 Y132F+K143R [2] = target: T2, CaCYP51 Y132F+K143R (Candida albicans, UniProt P10613, K143R/Y132F); assay: Azole ligand binding (type II difference spectra)
T2 construct: made in house; host or cells: E. coli DH5α (pCWori+)
T2 sequence (P10613 whole entry, looked up, stated change not applied): as above
Protocol: as §1

[3] = target: CaCYP51 proteins with amino acid substitutions; assay: CYP51 reconstitution assay, span over several CaCYP51 proteins; format: biochemical, Candida albicans
Protocol: as §2

CaCYP51 D278N+G464S = target: T3, CaCYP51 D278N+G464S (Candida albicans, UniProt P10613, D278N/G464S); assay: Azole ligand binding (type II difference spectra)
T3 construct: made in house; host or cells: E. coli DH5α (pCWori+)
T3 sequence (P10613 whole entry, looked up, stated change not applied): as above
Protocol: as §1

CaCYP51 D278N = target: T4, CaCYP51 D278N (Candida albicans, UniProt P10613, D278N); assay: Azole ligand binding (type II difference spectra); conditions: 4 μM protein, 22°C, ± standard deviation, triplicate, read-out: dissociation constant (Kd)
T4 construct: made in house; host or cells: E. coli DH5α (pCWori+)
T4 sequence (P10613 whole entry, looked up, stated change not applied): as above
Protocol: as §1

CaCYP51 G307S+G450E = target: T5, CaCYP51 G307S+G450E (Candida albicans, UniProt P10613, G307S/G450E); assay: Azole ligand binding (type II difference spectra)
T5 construct: made in house; host or cells: E. coli DH5α (pCWori+)
T5 sequence (P10613 whole entry, looked up, stated change not applied): as above
Protocol: as §1

CaCYP51 Y132F+F145L [4] = target: T6, CaCYP51 Y132F+F145L (Candida albicans, UniProt P10613, F145L/Y132F); assay: Azole ligand binding (type II difference spectra)
T6 construct: made in house; host or cells: E. coli DH5α (pCWori+)
T6 sequence (P10613 whole entry, looked up, stated change not applied): as above
Protocol: as §1

CaCYP51 G307S = target: T7, CaCYP51 G307S (Candida albicans, UniProt P10613, G307S); assay: Azole ligand binding (type II difference spectra); conditions: 4 μM protein, 22°C, ± standard deviation, triplicate, read-out: dissociation constant (Kd)
T7 construct: made in house; host or cells: E. coli DH5α (pCWori+)
T7 sequence (P10613 whole entry, looked up, stated change not applied): as above
Protocol: as §1

CaCYP51 K143R = target: T8, CaCYP51 K143R (Candida albicans, UniProt P10613, K143R); assay: Azole ligand binding (type II difference spectra); conditions: 4 μM protein, 22°C, ± standard deviation, triplicate, read-out: dissociation constant (Kd)
T8 construct: made in house; host or cells: E. coli DH5α (pCWori+)
T8 sequence (P10613 whole entry, looked up, stated change not applied): as above
Protocol: as §1

CaCYP51 S279F = target: T9, CaCYP51 S279F (Candida albicans, UniProt P10613, S279F); assay: Azole ligand binding (type II difference spectra); conditions: 4 μM protein, 22°C, ± standard deviation, triplicate, read-out: dissociation constant (Kd)
T9 construct: made in house; host or cells: E. coli DH5α (pCWori+)
T9 sequence (P10613 whole entry, looked up, stated change not applied): as above
Protocol: as §1

CaCYP51 Y132F+K143R [5] = assay: CYP51 reconstitution assay; format: biochemical, Candida albicans; conditions: Y132F+K143R
Protocol: as §2

[6] = 4 μM protein, 22°C, ± standard deviation, triplicate, read-out: dissociation constant (Kd)

CC[C@@H]([C@H](C)O)n1ncn(-c2ccc(N3CCN(c4ccc(OC[C@@H]5CO[C@@](Cn6cncn6)(c6ccc(F)cc6F)C5)cc4)CC3)cc2)c1=O [Posaconazole, posaconazole]
Kd (CaCYP51 Y132H+K143R): 162 ± 59 nM
fold increase in IC50 over wild-type enzyme (CaCYP51 Y132F+F145L [1]): 2.2 fold

CCC(C)n1ncn(-c2ccc(N3CCN(c4ccc(OCC5COC(Cn6cncn6)(c6ccc(Cl)cc6Cl)O5)cc4)CC3)cc2)c1=O (stereo not shown) [Itraconazole, itraconazole]
Kd (CaCYP51 Y132F+K143R [2]): 127 ± 33 nM
Kd (CaCYP51 Y132H+K143R): 387 ± 117 nM
IC50 relative to that of the wild-type enzyme ([3]; none of the substituted CaCYP51 proteins greater than this): ≤ 1.6 fold

OC(Cn1cncn1)(Cn1cncn1)c1ccc(F)cc1F [Fluconazole, fluconazole]
apparent Kd, fold lower than wild-type enzyme (CaCYP51 D278N+G464S): 3 fold
Kd (CaCYP51 D278N+G464S; [6]): 15 ± 9 nM
Kd (CaCYP51 D278N): 120 ± 35 nM
Kd, fold higher than wild-type enzyme (CaCYP51 G307S+G450E): 3 fold
Kd (CaCYP51 G307S+G450E; [6]): 158 ± 38 nM
Kd (CaCYP51 Y132F+F145L [4]): 202 ± 57 nM
Kd, fold higher than wild-type enzyme (CaCYP51 Y132F+F145L [4]; Y132F+F145L): 4 fold
Kd (CaCYP51 G307S): 133 ± 13 nM
Kd (CaCYP51 Y132F+K143R [2]): 15600 nM
Kd, fold larger than wild-type enzyme (CaCYP51 Y132F+K143R [2]; Y132F+K143R): 312 fold
Kd, fold larger than wild-type enzyme (CaCYP51 Y132H+K143R): 362 fold
Kd (CaCYP51 Y132H+K143R): 18100 nM
Kd (CaCYP51 K143R): 118 ± 24 nM
Kd (CaCYP51 S279F): 232 ± 36 nM
fold increase in IC50 over wild-type enzyme (CaCYP51 Y132F+K143R [5]): 15 fold and 15.3 fold
fold increase in IC50 over wild-type enzyme (CaCYP51 Y132F+F145L [1]): 10 fold and 10.1 fold

C[C@@H](c1ncncc1F)[C@](O)(Cn1cncn1)c1ccc(F)cc1F [Voriconazole, voriconazole]
Residual CYP51 activity, span over proteins ([3]; 4 μM voriconazole, K143R, S279F, G450E, Y132F+K143R, Y132H+K143R, Y132F+F145L, D278N+G464S): over 3%
